Like-named read-outs stand apart in the source and are kept apart here.
Experiments:
Type in all cases: biochemical
JAK1 = JAK1 (Homo sapiens (Human), UniProt P23458); assay: JAK1 Inhibition Assay (Example B, Omnia kinase fluorescence peptide substrate assay)
Outline: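 Recombinant human JAK1 (12.5 nM) with 1 mM ATP and 8 μM Omnia Y12 Sox-peptide in 25 mM HEPES pH 7.4, 10 mM MgCl2, 0.01% Triton X-100, 1 mM DTT, 2% DMSO final. Phosphorylation read kinetically (ex 360/em 485 nm, 45 min); IC50 from 4-parameter fit of percent of control.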

Human Tyk2 kinase domain = Human Tyk2 kinase domain (Homo sapiens (Human), UniProt P29597); assay: Tyk2 Inhibition Assay (Example A, Omnia kinase fluorescence peptide substrate assay); conditions: TYK2 Enzyme IC50 1 mM ATP, averaged IC50 ranges
Sequence of Human Tyk2 kinase domain (P29597 886-1187): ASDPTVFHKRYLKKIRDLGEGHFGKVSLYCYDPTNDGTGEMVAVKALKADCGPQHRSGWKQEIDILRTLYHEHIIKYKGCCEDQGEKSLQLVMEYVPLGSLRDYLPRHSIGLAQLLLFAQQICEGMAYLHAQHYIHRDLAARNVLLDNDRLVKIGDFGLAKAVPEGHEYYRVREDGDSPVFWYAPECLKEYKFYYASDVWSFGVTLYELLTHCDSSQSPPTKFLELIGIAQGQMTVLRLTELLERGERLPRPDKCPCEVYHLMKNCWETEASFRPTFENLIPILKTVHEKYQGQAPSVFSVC
Outline: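 Omnia Sox-peptide kinetic fluorescence assay (ex 360/em 485 nm, read every 50 s for 45 min) with 1 nM human Tyk2 kinase domain (aa 886–1187, His tag cleaved, baculovirus-expressed), 1 mM ATP, 8 μM Omnia Y12 peptide, in 25 mM HEPES pH 7.4, 10 mM MgCl2, 0.01% Triton X-100, 1 mM DTT, 2% DMSO. IC50 from 4-parameter logistic fit of percent of control.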

JAK3 = JAK3 (Homo sapiens (Human), UniProt P52333); assay: JAK3 Inhibition Assay (Example D, Omnia kinase fluorescence peptide substrate assay)
Sequence of JAK3 (P52333 whole entry): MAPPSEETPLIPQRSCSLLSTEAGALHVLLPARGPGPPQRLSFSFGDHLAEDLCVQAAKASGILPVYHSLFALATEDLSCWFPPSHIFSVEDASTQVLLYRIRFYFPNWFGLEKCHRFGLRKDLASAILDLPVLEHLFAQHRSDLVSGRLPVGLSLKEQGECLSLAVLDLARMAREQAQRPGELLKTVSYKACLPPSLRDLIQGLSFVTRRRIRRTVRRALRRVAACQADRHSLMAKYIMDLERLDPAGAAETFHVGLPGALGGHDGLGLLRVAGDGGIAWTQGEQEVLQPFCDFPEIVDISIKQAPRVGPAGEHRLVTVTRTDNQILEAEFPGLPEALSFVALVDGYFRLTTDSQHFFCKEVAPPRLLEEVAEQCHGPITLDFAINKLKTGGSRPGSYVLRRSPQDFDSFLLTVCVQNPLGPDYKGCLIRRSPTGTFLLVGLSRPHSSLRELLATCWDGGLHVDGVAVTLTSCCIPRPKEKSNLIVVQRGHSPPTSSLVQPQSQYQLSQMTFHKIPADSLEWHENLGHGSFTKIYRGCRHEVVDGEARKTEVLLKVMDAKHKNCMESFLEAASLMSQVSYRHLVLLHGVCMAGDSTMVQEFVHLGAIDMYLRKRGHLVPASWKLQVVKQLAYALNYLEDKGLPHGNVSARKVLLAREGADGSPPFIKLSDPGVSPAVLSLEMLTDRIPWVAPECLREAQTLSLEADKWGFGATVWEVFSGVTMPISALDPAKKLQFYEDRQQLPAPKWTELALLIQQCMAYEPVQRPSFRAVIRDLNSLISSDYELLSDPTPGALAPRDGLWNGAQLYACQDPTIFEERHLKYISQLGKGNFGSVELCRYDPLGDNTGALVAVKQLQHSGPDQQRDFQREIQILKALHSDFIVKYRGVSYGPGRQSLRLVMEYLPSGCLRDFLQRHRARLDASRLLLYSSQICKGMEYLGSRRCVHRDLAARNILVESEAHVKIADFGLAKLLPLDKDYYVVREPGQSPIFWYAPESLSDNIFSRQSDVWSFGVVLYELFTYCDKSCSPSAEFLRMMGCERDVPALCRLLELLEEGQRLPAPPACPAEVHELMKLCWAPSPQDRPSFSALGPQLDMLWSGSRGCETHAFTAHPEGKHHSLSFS
Outline: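 Mixture held 2 nM JAK3, 1 mM ATP and 10 μM Omnia Y7 peptide in 25 mM HEPES pH 7.4, 10 mM MgCl2, 0.01% Triton X-100, 1 mM DTT, 2% DMSO final. Sox fluorescence (ex 360/em 485 nm) was read every 50 s for 45 min. IC50 came from a 4-parameter logistic fit of percent of control.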

JAK2 = JAK2 (Homo sapiens (Human), UniProt O60674); assay: JAK2 Inhibition Assay (Example C, Omnia kinase fluorescence peptide substrate assay); conditions: JAK2 Enzyme IC50 1 mM ATP, averaged IC50 ranges
Sequence of JAK2 (O60674 whole entry): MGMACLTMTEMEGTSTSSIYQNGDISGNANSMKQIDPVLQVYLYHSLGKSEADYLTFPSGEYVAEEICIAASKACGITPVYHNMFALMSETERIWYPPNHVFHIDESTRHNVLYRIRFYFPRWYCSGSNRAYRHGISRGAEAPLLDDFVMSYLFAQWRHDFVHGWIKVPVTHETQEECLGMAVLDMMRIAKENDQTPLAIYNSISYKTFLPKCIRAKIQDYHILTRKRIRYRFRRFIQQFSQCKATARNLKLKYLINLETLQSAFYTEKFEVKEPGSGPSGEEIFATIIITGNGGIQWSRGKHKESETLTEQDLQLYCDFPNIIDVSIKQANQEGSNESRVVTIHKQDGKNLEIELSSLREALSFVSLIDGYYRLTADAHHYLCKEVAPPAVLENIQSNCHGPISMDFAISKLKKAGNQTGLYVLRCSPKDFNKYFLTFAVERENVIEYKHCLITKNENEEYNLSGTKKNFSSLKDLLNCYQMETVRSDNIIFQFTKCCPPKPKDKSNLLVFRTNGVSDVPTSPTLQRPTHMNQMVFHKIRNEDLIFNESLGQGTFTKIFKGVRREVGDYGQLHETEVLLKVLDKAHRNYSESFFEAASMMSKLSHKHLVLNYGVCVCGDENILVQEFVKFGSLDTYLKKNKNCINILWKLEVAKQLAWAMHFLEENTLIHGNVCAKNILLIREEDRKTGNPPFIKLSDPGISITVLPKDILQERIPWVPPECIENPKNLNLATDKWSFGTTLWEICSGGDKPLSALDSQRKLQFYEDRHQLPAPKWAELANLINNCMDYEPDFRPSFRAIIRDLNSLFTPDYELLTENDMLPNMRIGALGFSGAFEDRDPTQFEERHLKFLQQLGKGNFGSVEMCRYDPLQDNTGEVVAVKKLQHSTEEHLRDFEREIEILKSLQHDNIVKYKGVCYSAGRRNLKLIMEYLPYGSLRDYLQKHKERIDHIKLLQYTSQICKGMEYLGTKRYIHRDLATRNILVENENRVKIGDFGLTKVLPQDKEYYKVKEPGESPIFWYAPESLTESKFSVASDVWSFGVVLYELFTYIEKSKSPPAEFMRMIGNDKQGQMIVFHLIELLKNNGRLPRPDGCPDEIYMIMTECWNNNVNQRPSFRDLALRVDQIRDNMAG
Outline: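 4 nM JAK2 with 1 mM ATP and 10 μM Omnia Y7 peptide in 25 mM HEPES pH 7.4, 10 mM MgCl2, 0.01% Triton X-100, 1 mM DTT, 2% DMSO. Sox fluorescence (ex 360/em 485 nm) read every 50 s for 45 min; IC50 from 4-parameter fit of percent of control.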

[1] = JAK1 Enzyme IC50 1 mM ATP, 1 mM ATP, averaged IC50 ranges

Sequence of JAK1 (P23458 whole entry): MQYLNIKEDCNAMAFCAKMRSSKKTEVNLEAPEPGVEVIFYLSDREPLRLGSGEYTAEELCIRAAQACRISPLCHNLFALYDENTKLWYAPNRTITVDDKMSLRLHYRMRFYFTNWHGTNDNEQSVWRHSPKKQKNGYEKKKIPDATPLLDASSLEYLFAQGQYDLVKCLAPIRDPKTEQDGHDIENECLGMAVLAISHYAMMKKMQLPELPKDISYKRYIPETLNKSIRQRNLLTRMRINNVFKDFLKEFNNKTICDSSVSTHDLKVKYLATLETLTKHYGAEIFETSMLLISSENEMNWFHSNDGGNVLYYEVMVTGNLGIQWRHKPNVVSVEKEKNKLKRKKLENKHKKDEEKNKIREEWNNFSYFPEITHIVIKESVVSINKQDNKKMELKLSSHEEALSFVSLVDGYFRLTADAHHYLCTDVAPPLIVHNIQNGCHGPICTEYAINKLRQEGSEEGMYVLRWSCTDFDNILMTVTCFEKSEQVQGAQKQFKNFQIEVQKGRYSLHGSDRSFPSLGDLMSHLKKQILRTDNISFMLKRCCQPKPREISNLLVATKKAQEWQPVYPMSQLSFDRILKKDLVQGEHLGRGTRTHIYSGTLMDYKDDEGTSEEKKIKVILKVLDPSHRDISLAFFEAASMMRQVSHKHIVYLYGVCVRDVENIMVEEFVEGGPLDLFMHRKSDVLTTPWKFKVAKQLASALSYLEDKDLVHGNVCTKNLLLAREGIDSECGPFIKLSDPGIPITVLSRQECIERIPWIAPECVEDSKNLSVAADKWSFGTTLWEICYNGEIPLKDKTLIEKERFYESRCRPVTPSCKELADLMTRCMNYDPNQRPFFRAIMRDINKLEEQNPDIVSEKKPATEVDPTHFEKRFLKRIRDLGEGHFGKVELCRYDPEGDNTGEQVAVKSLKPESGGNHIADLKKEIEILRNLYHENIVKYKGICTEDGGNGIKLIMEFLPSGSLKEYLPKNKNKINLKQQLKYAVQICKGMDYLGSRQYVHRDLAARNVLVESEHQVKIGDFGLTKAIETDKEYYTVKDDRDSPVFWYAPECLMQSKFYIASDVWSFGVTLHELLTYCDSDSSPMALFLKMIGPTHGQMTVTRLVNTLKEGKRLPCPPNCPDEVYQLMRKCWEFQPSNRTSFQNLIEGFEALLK

Structure (SMILES)	IC50 (JAK1) [µM]	IC50 (Human Tyk2 kinase domain) [µM]	IC50 (JAK3) [µM]	IC50 (JAK2) [µM]	IC50 (JAK1; [1]) [µM]
CCC(CC)n1cc(-c2nc(-c3cnn([C@H](C)[C@@H](O)CO)c3)cn3nccc23)cn1 (single isomer, unassigned) [Example 92]	0.1 to 1	0.01 to 0.1	1 to 10	0.01 to 0.1	–
Cn1cc(-c2cn3nccc3c(-c3cnn(C4(C)CCCC4)c3)n2)cn1 [Example 49, 6-(1-methyl-1H-pyrazol-4-yl)-4-(1-(1-methylcyclopentyl)-1H-pyrazol-4-yl)pyrazolo[1,5-a]pyrazine]	1 to 10	0.1 to 1	1 to 10	1 to 10	–
CCC(CC)n1cc(-c2nc(-c3cnn([C@@H](C)[C@@H](O)CO)c3)cn3nccc23)cn1 (single isomer, unassigned) [Example 91]	0.1 to 1	0.01 to 0.1	1 to 10	0.01 to 0.1	–
CCC(CC)n1cc(-c2nc(-c3cnn(C[C@@H]4CCC(=O)N4)c3)cn3nccc23)cn1 [Example 17, (S)-5-((4-(4-(1-(pentan-3-yl)-1H-pyrazol-4-yl)pyrazolo[1,5-a]pyrazin-6-yl)-1H-pyrazol-1-yl)methyl)pyrrolidin-2-one]	0.1 to 1	0.01 to 0.1	1 to 10	0.01 to 0.1	–
CCC(CC)n1cc(-c2nc(-c3cnn(C[C@H](O)C(C)(C)O)c3)cn3nccc23)cn1 [Example 56, (S)-3-methyl-1-(4-(4-(1-(pentan-3-yl)-1H-pyrazol-4-yl)pyrazolo[1,5-a]pyrazin-6-yl)-1H-pyrazol-1-yl)butane-2,3-diol]	1 to 10	0.01 to 0.1	1 to 10	0.01 to 0.1	–
CCC(CC)n1cc(-c2nc(-c3cnn(C[C@H](O)CN(C)C)c3)cn3nccc23)cn1 [Example 99, (R)-1-(dimethylamino)-3-(4-(4-(1-(pentan-3-yl)-1H-pyrazol-4-yl)pyrazolo[1,5-a]pyrazin-6-yl)-1H-pyrazol-1-yl)propan-2-ol]	–	0.01 to 0.1	1 to 10	0.01 to 0.1	1 to 10
CCC(CC)n1cc(-c2nc(-c3cnn(CCN(C)C)c3)cn3nccc23)cn1 [Example 10, N,N-dimethyl-2-(4-(4-(1-(pentan-3-yl)-1H-pyrazol-4-yl)pyrazolo[1,5-a]pyrazin-6-yl)-1H-pyrazol-1-yl)ethanamine]	1 to 10	0.01 to 0.1	1 to 10	0.01 to 0.1	–
CCC[C@@H](C)n1cc(-c2nc(-c3cnn(C[C@@H](O)CO)c3)cn3nccc23)cn1 [Example 73, (R)-3-(4-(4-(1-((R)-pentan-2-yl)-1H-pyrazol-4-yl)pyrazolo[1,5-a]pyrazin-6-yl)-1H-pyrazol-1-yl)propane-1,2-diol]	–	0.01 to 0.1	1 to 10	0.01 to 0.1	1 to 10
CC(C)C[C@@H](C)n1cc(-c2nc(-c3cnn(C[C@@H](O)CO)c3)cn3nccc23)cn1 [Example 77, (R)-3-(4-(4-(1-((R)-4-methylpentan-2-yl)-1H-pyrazol-4-yl)pyrazolo[1,5-a]pyrazin-6-yl)-1H-pyrazol-1-yl)propane-1,2-diol]	–	0.1 to 1	1 to 10	0.1 to 1	1 to 10
CCOC(C)n1cc(-c2nc(-c3cnn(C)c3)cn3nccc23)cn1 (stereo not drawn) [Example 1, 4-(1-(1-ethoxyethyl)-1H-pyrazol-4-yl)-6-(1-methyl-1H-pyrazol-4-yl)pyrazolo[1,5-a]pyrazine]	1 to 10	1 to 10	1 to 10	1 to 10	–
CCC(CC)n1cc(-c2nc(-c3cnn(C4CN(C(=O)NC)C4)c3)cn3nccc23)cn1 [Example 39, N-methyl-3-(4-(4-(1-(pentan-3-yl)-1H-pyrazol-4-yl)pyrazolo[1,5-a]pyrazin-6-yl)-1H-pyrazol-1-yl)azetidine-1-carboxamide]	0.01 to 0.1	0.01 to 0.1	1 to 10	0.01 to 0.1	–
CCC(CC)n1cc(-c2nc(-c3cnn(CC4CCS(=O)(=O)CC4)c3)cn3nccc23)cn1 [Example 11, 4-((4-(4-(1-(pentan-3-yl)-1H-pyrazol-4-yl)pyrazolo[1,5-a]pyrazin-6-yl)-1H-pyrazol-1-yl)methyl)tetrahydro-2H-thiopyran 1,1-dioxide]	1 to 10	0.01 to 0.1	1 to 10	0.01 to 0.1	–

More lines, now with the values ahead:

IC50 (JAK1) [µM]	IC50 (Human Tyk2 kinase domain) [µM]	IC50 (JAK3) [µM]	IC50 (JAK2) [µM]	IC50 (JAK1; [1]) [µM]	Structure (SMILES)
1 to 10	0.01 to 0.1	1 to 10	0.01 to 0.1	–	CCC(CC)n1cc(-c2nc(-c3cnn(CCN4CCC(CO)CC4)c3)cn3nccc23)cn1 [Example 146, (1-(2-(4-(4-(1-(pentan-3-yl)-1H-pyrazol-4-yl)pyrazolo[1,5-a]pyrazin-6-yl)-1H-pyrazol-1-yl)ethyl)piperidin-4-yl)methanol]
–	0.1 to 1	1 to 10	0.1 to 1	1 to 10	CCC(CC)n1cc(-c2nc(-c3cnn(C[C@H](O)CN4CCCC4)c3)cn3nccc23)cn1 [Example 105, (R)-1-(4-(4-(1-(pentan-3-yl)-1H-pyrazol-4-yl)pyrazolo[1,5-a]pyrazin-6-yl)-1H-pyrazol-1-yl)-3-(pyrrolidin-1-yl)propan-2-ol]
–	0.01 to 0.1	1 to 10	0.01 to 0.1	0.1 to 1	CCC(CC)n1cc(-c2nc(-c3cnn([C@H]4C[C@H](O)C4)c3)cn3nccc23)cn1 [Example 161, trans-3-(4-(4-(1-(pentan-3-yl)-1H-pyrazol-4-yl)pyrazolo[1,5-a]pyrazin-6-yl)-1H-pyrazol-1-yl)cyclobutanol]
0.1 to 1	0.01 to 0.1	1 to 10	0.01 to 0.1	–	CCC(CC)n1cc(-c2nc(-c3cnn(C4CN(C(=O)CO)C4)c3)cn3nccc23)cn1 [compound 174, 2-hydroxy-1-(3-(4-(4-(1-(pentan-3-yl)-1H-pyrazol-4-yl)pyrazolo[1,5-a]pyrazin-6-yl)-1H-pyrazol-1-yl)azetidin-1-yl)ethanone]
1 to 10	0.01 to 0.1	1 to 10	0.01 to 0.1	–	CCC(CC)n1cc(-c2nc(-c3cnn(C4CN(C(=O)[C@H]5C[C@@H](O)C5)C4)c3)cn3nccc23)cn1 [Example 178, (cis-3-hydroxycyclobutyl)(3-(4-(4-(1-(pentan-3-yl)-1H-pyrazol-4-yl)pyrazolo[1,5-a]pyrazin-6-yl)-1H-pyrazol-1-yl)azetidin-1-yl)methanone]
0.1 to 1	0.01 to 0.1	1 to 10	0.01 to 0.1	–	CCC(CC)n1cc(-c2nc(-c3cnn(CCN4CC[C@@H](OC)C4)c3)cn3nccc23)cn1 [Example 136, (R)-6-(1-(2-(3-methoxypyrrolidin-1-yl)ethyl)-1H-pyrazol-4-yl)-4-(1-(pentan-3-yl)-1H-pyrazol-4-yl)pyrazolo[1,5-a]pyrazine]
–	0.01 to 0.1	1 to 10	0.01 to 0.1	1 to 10	CCC(CC)n1cc(-c2nc(-c3cnn([C@@H]4CCC[C@@H]4O)c3)cn3nccc23)cn1 [Example 189, (1S,2R)-2-(4-(4-(1-(pentan-3-yl)-1H-pyrazol-4-yl)pyrazolo[1,5-a]pyrazin-6-yl)-1H-pyrazol-1-yl)cyclopentanol]
–	0.01 to 0.1	1 to 10	0.01 to 0.1	0.1 to 1	CC[C@@H](C1CCC1)n1cc(-c2nc(-c3cnn(C[C@@H](O)CO)c3)cn3nccc23)cn1 (single isomer, unassigned) [Example 197]
0.1 to 1	0.01 to 0.1	1 to 10	0.01 to 0.1	–	CCC(CC)n1cc(-c2nc(-c3cnn(C[C@H](O)COC)c3)cn3nccc23)cn1 [Example 108, (S)-1-methoxy-3-(4-(4-(1-(pentan-3-yl)-1H-pyrazol-4-yl)pyrazolo[1,5-a]pyrazin-6-yl)-1H-pyrazol-1-yl)propan-2-ol]
0.1 to 1	0.01 to 0.1	1 to 10	0.1 to 1	–	CCC(CC)n1cc(-c2nc(-c3cnn(CCN4CCC(O)CC4)c3)cn3nccc23)cn1 [Example 139, 1-(2-(4-(4-(1-(pentan-3-yl)-1H-pyrazol-4-yl)pyrazolo[1,5-a]pyrazin-6-yl)-1H-pyrazol-1-yl)ethyl)piperidin-4-ol]
–	0.01 to 0.1	1 to 10	0.01 to 0.1	0.1 to 1	CCC(CC)n1cc(-c2nc(-c3cnn([C@H]4CCC[C@@H]4O)c3)cn3nccc23)cn1 (single isomer, unassigned) [Example 154]
–	0.1 to 1	1 to 10	0.1 to 1	1 to 10	CCC(CC)n1cc(-c2nc(-c3cnn(C4CN(C(=O)CN5CC(O)C5)C4)c3)cn3nccc23)cn1 [Example 180, 2-(3-hydroxyazetidin-1-yl)-1-(3-(4-(4-(1-(pentan-3-yl)-1H-pyrazol-4-yl)pyrazolo[1,5-a]pyrazin-6-yl)-1H-pyrazol-1-yl)azetidin-1-yl)ethanone]

Source: patent publication US10189845B2, “4,6-substituted-pyrazolo[1,5-a]pyrazines as janus kinase inhibitors” (ARRAY BIOPHARMA INC., priority 2014, dated 2019)
